Experimental data reported in ChEMBL document CHEMBL4382286, “Nongenotoxic 3-Nitroimidazo[1,2-a]pyridines Are NTR1 Substrates That Display Potent in Vitro Antileishmanial Activity” (ACS Med Chem Lett, 2019).
Blank lines part the entries; values can stand above or below the molecule they belong to.

Experiments:
[1] = Aqueous solubility of the compound at >12.5 uM; format: physicochemical; settings: buffer
[2] = Mutagenicity in Salmonella typhimurium TA102 at 62.5 to 625 uM preincubated for 1 hr with S9 mix followed by addition of molten top agar and measured 48 hrs post dark incubation by Ames test; format: toxicity, subcellular; settings: salmonella enterica subsp. enterica serovar typhimurium, s9, 48 h
[3] = Mutagenicity in Salmonella typhimurium TA98 at 62.5 to 625 uM preincubated for 1 hr with S9 mix followed by addition of molten top agar and measured 48 hrs post dark incubation by Ames test; format: toxicity, subcellular; settings: salmonella enterica subsp. enterica serovar typhimurium, s9, 48 h
Leishmania infantum = assay: Antileishmanial activity against Leishmania infantum axenic amastigotes after 48 hrs by steady-glo luciferase reporter gene assay; format: functional, organism-based
[4] = Mutagenicity in Salmonella typhimurium TA100 at 62.5 to 625 uM preincubated for 1 hr followed by addition of molten top agar and measured 48 hrs post dark incubation by Ames test; format: toxicity; settings: salmonella enterica subsp. enterica serovar typhimurium
[5] = Mutagenicity in Salmonella typhimurium TA100 at 62.5 to 625 uM preincubated for 1 hr with S9 mix followed by addition of molten top agar and measured 48 hrs post dark incubation by Ames test; format: toxicity, subcellular; settings: salmonella enterica subsp. enterica serovar typhimurium, s9, 48 h
[6] = Electrochemical behavior of the compound assessed as redox potential corrected toward normal hydrogen electrode by cyclic voltammetry
[7] = Mutagenicity in Salmonella typhimurium TA97a at 62.5 to 625 uM preincubated for 1 hr with S9 mix followed by addition of molten top agar and measured 48 hrs post dark incubation by Ames test; format: toxicity, subcellular; settings: salmonella enterica subsp. enterica serovar typhimurium, s9, 48 h
[8] = Mutagenicity in Salmonella typhimurium TA102 at 62.5 to 625 uM preincubated for 1 hr followed by addition of molten top agar and measured 48 hrs post dark incubation by Ames test; format: toxicity; settings: salmonella enterica subsp. enterica serovar typhimurium
[9] = tested on: Trypanosoma brucei brucei; assay: Antitrypanosomal activity against trypomastigote stage of Trypanosoma brucei brucei AnTat 1.9 assessed as decrease in parasite viability after 69 hrs by Alamar Blue assay; format: functional, organism-based; settings: AnTat 1.9, 69 h
[10] = Mutagenicity in Salmonella typhimurium TA97a at 62.5 to 625 uM preincubated for 1 hr followed by addition of molten top agar and measured 48 hrs post dark incubation by Ames test; format: toxicity; settings: salmonella enterica subsp. enterica serovar typhimurium
Leishmania donovani [11] = assay: Antileishmanial activity against intracellular amastigote stage of Leishmania donovani infected in human THP1 cells after 120 hrs by giemsa staining based microscopic analysis; format: functional, organism-based; settings: THP-1, 120 h
[12] = Mutagenicity in Salmonella typhimurium TA98 at 62.5 to 625 uM preincubated for 1 hr followed by addition of molten top agar and measured 48 hrs post dark incubation by Ames test; format: toxicity; settings: salmonella enterica subsp. enterica serovar typhimurium
[13] = Cytotoxicity against human HepG2 cells after 72 hrs by MTT assay; format: cell-based
Trichomonas vaginalis = assay: Antiprotozoal activity against Trichomonas vaginalis TVR87 measured after 48 hrs by trypan blue assay; format: functional, organism-based
[14] = Solubility of the compound in RPMI medium at 4 to 6 uM; format: physicochemical
[15] = Selectivity index, ratio of CC50 for human HepG2 cells to IC50 for promastigote stage of Leishmania donovani MHOM/IN/00/DEVI; format: toxicity; settings: read-out: Ratio CC50/IC50
Leishmania donovani [16] = assay: Antileishmanial activity against promastigote stage of Leishmania donovani MHOM/IN/00/DEVI after 72 hrs by MTT assay; format: functional, organism-based
[17] = Cytotoxicity against human THP1 cells after 72 hrs by MTT assay; format: cell-based; settings: THP-1 cells
[18] = Solubility of the compound in RPMI medium at >40 uM; format: physicochemical
Leishmania donovani [19] = assay: Selectivity ratio of IC50 for wild type promastigote stage of Leishmania donovani MHOM/SD/62/1S-CL2D to IC50 for NTR1 in promastigote stage of Leishmania donovani MHOM/SD/62/1S-CL2D
Leishmania donovani [20] = assay: Selectivity ratio of IC50 for NTR2 in promastigote stage of Leishmania donovani MHOM/SD/62/1S-CL2D to IC50 for NTR1 in promastigote stage of Leishmania donovani MHOM/SD/62/1S-CL2D
[21] = Substrate activity at NTR1 in promastigote stage of Leishmania donovani MHOM/SD/62/1S-CL2D assessed as inhibition of parasite growth after 72 hrs by resazurin dye based assay
[22] = Substrate activity at NTR2 in promastigote stage of Leishmania donovani MHOM/SD/62/1S-CL2D assessed as inhibition of parasite growth after 72 hrs by resazurin dye based assay
Leishmania donovani [23] = assay: Antileishmanial activity against wild type promastigote stage of Leishmania donovani MHOM/SD/62/1S-CL2D after 72 hrs by resazurin dye based fluorescence assay; format: functional, organism-based
[24] = Aqueous solubility of the compound at >62.5 uM; format: physicochemical; settings: buffer

- solubility [14]: Soluble
SMILES: O=C(O)Cc1ccc(Sc2cc(Cl)cn3c([N+](=O)[O-])c(CS(=O)(=O)c4ccccc4)nc23)cc1
- selectivity ratio [15]: > 1
- CC50 at 72 h [13]: > 62.5 µM
- IC50 (Leishmania donovani [16]): 65.6 µM

- IC50 (Leishmania infantum): 31.6 µM
- solubility [24]: Insoluble
- IC50 [9]: 10.6 µM
- IC50 (Leishmania donovani [11]): 124 µM
SMILES: Nc1c(CS(=O)(=O)c2ccccc2)nc2c(Sc3ccc(Cl)cc3)cc(Cl)cn12
- CC50 at 72 h [13]: > 62.5 µM

Continued, molecule first:

SMILES: O=[N+]([O-])c1c(CS(=O)(=O)c2ccccc2)nc2c([S+]([O-])c3ccc(Cl)cc3)cc(Cl)cn12 (stereo unspecified)
- solubility [1]: Insoluble
- Activity [2]: Non-Toxic
- Activity [3]: Non-Toxic
- IC50 (Leishmania infantum): 1.6 µM
- Activity [4]: Non-Toxic
- Activity [5]: Non-Toxic
- Activity [6]: -0.61 V
- Activity [7]: Non-Toxic
- Activity [8]: Non-Toxic
- IC50 [9]: 0.6 µM
- Activity [10]: Non-Toxic
- IC50 (Leishmania donovani [11]): 1.3 µM
- Activity [12]: Non-Toxic
- CC50 at 72 h [13]: > 12.5 µM

SMILES: Cc1ncc([N+](=O)[O-])n1CCO [METRONIDAZOLE]
- IC50 (Trichomonas vaginalis): 4.2 µM

SMILES: CCCCCCCCCCCCCCCCOP(=O)([O-])OCC[N+](C)(C)C [MILTEFOSINE]
- CC50 at 72 h [17]: > 40 µM
- solubility [18]: Insoluble

SMILES: O=[N+]([O-])c1c(CS(=O)(=O)c2ccccc2)nc2c(S(=O)(=O)c3ccc(Cl)cc3)cc(Cl)cn12
- solubility [1]: Insoluble
- IC50 (Leishmania infantum): 3.7 µM
- Ratio IC50 (Leishmania donovani [19]): 8
- Ratio IC50 (Leishmania donovani [20]): 8
- Activity [6]: -0.59 V
- IC50 [21]: 0.08 µM
- IC50 [9]: 1 µM
- IC50 (Leishmania donovani [11]): 1.3 µM
- CC50 at 72 h [13]: > 12.5 µM
- IC50 [22]: 0.7 µM
- IC50 (Leishmania donovani [23]): 0.6 µM

SMILES: O=[N+]([O-])c1c(CS(=O)(=O)c2ccccc2)nc2c(Sc3cccc(Cl)c3Cl)cc(Cl)cn12
- solubility [14]: Insoluble
- selectivity ratio [15]: > 12.5
- CC50 at 72 h [13]: > 25 µM
- IC50 (Leishmania donovani [16]): 2 µM
